Test results taken from patent US6274715A, “Tricyclic erythromycin derivatives” (priority 1997, dated 2001).
≈ marks a conversion by molar mass, not a printed value.

Experiments:
Type in all cases: cell-based
[1] = tested on: STAPHYLOCOCCUS AUREUS ATCC 6538P; experiment: In vitro antibacterial activity, MIC, BHI agar dilution; conditions: S. aureus ATCC 6538P, 35-37° C., 20 to 24 hours, unit assumed
[2] = tested on: STAPHYLOCOCCUS AUREUS A5177; experiment: as above; conditions: S. aureus A5177, unit assumed
[3] = tested on: STAPHYLOCOCCUS AUREUS A-5278; experiment: as above; conditions: S. aureus A-5278, unit assumed
[4] = tested on: STAPHYLOCOCCUS AUREUS CMX 642A; experiment: as above; conditions: S. aureus CMX 642A, unit assumed
[5] = tested on: STAPHYLOCOCCUS AUREUS NCTC10649M; experiment: as above; conditions: S. aureus NCTC10649M, unit assumed
[6] = tested on: STAPHYLOCOCCUS AUREUS CMX 553; experiment: as above; conditions: S. aureus CMX 553, unit assumed
[7] = tested on: STAPHYLOCOCCUS AUREUS 1775; experiment: as above; conditions: S. aureus 1775, unit assumed
[8] = tested on: STAPHYLOCOCCUS EPIDERMIDIS 3519; conditions: S. epidermidis 3519; BHI agar; unit assumed
EN[…] ATCC 8043 = experiment: In vitro antibacterial activity, MIC, BHI agar dilution; conditions: E. faecium ATCC 8043, unit assumed
Outline: (§1)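 BHI agar dilution: twelve plates with successive compound dilutions, inoculated by replicator with 1:100 culture dilutions (1:10 for slow growers such as Micrococcus and Streptococcus), 20 to 24 hours at 35-37° C. MIC was the lowest concentration giving no growth, slight haze or sparse isolated colonies versus drug-free control; erythromycin A as class reference.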

M[…] ATCC 4698 = experiment: as above; conditions: M. luteus ATCC 4698, unit assumed
Outline: as §1

M[…] ATCC 9341 = experiment: as above; conditions: M. luteus ATCC 9341, unit assumed
Outline: as §1

STR[…] 508 = experiment: as above; conditions: S. agalactiae CMX 508, unit assumed
Outline: as §1

[9] = tested on: STREPTOCOCCUS BOVIS A-5169; experiment: as above; conditions: S. bovis A-5169, unit assumed
[10] = tested on: STREPTOCOCCUS PYOGENES EES61; experiment: as above; conditions: S. pyogenes EES61, unit assumed
[11] = tested on: STREPTOCOCCUS PYOGENES 930; experiment: as above; conditions: S. pyogenes 930, unit assumed
[12] = tested on: STREPTOCOCCUS PYOGENES PIU 2548; experiment: as above; conditions: S. pyogenes PIU 2548, unit assumed
ESCHERICHIA COLI JUHL = conditions: E. coli JUHL; BHI agar; unit assumed
ESCHERICHIA COLI SS = experiment: In vitro antibacterial activity, MIC, BHI agar dilution; conditions: E. coli SS, unit assumed
ESCHERICHIA COLI DC-2 = experiment: as above; conditions: E. coli DC-2, unit assumed
ESCHERICHIA COLI H560 = experiment: as above; conditions: E. coli H560, unit assumed
ESCHERICHIA COLI KNK 437 = conditions: E. coli KNK 437; BHI agar; unit assumed
[13] = tested on: ENTEROBACTER AEROGENES ATCC 13048; experiment: In vitro antibacterial activity, MIC, BHI agar dilution; conditions: E. aerogenes ATCC 13048, unit assumed
[14] = tested on: KLEBSIELLA PNEUMONIAE ATCC 8045; experiment: as above; conditions: K. pneumoniae ATCC 8045, unit assumed
[15] = tested on: PROVIDENCIA STUARTII CMX 640; conditions: P. stuartii CMX 640; BHI agar; unit assumed
[16] = tested on: PSEUDOMONAS AERUGINOSA BMH10; experiment: In vitro antibacterial activity, MIC, BHI agar dilution; conditions: P. aeruginosa BMH10, unit assumed
[17] = tested on: PSEUDOMONAS AERUGINOSA 5007; experiment: as above; conditions: P. aeruginosa 5007, unit assumed
[18] = tested on: PSEUDOMONAS AERUGINOSA K799/WT; experiment: as above; conditions: P. aeruginosa K799/WT, unit assumed
[19] = tested on: PSEUDOMONAS AERUGINOSA K799/61; experiment: as above; conditions: P. aeruginosa K799/61, unit assumed
PSEUDOMONAS CEPACIA 296I = experiment: as above; conditions: P. cepacia 296I, unit assumed
[20] = tested on: PSEUDOMONAS AERUGINOSA DPHD-5263; experiment: as above; conditions: P. aeruginosa DPHD-5263, unit assumed
[21] = tested on: PSEUDOMONAS AERUGINOSA DPHD-2862; experiment: as above; conditions: P. aeruginosa DPHD-2862, unit assumed
CANDIDA ALBICANS CCH 442 = experiment: as above; conditions: C. albicans CCH 442, unit assumed
[22] = tested on: MYCOBACTERIUM SMEGMATIS ATCC 114; experiment: as above; conditions: M. smegmatis ATCC 114, unit assumed
H. Influenza Dill AMP R = experiment: In vitro antibacterial activity against H. Influenza Dill AMP R, MIC; conditions: separate assay, unit assumed
Experimental: Representative compounds of the present invention were assayed in vitro for antibacterial activity as follows: Twelve petri dishes containing successive aqueous dilutions of the test compound mixed with 10 mL of sterilized Brain Heart Infusion (BHI) agar (Difco 0418-01-5) were prepared. Each plate was inoculated with 1:100 (or 1:10 for slow-growing strains, such as Micrococcus and Streptococcus) dilutions of up to 32 different microorganisms, using a Steers replicator block. The inoculated plates were incubated at 35-37° C. for 20 to 24 hours. In addition, a control plate, using BHI agar containing no test compound, was prepared and incubated at the beginning and end of each test.
After incubation, each plate was visually inspected. The minimum inhibitory concentration (MIC) was defmed as the lowest concentration of drug yielding no growth, a slight haze, or sparsely isolated colonies on the inoculum spot as compared to the growth control.
In a separate assay representative compounds of the invention were assayed in vitro for antibacterial activity against the H. Influenza Dill AMP R strain, according to the protocol described above.

[23] = tested on: ACINETOBACTER CALCOACETICUS CMX 669; experiment: In vitro antibacterial activity, MIC, BHI agar dilution; conditions: A. calcoaceticus CMX 669, unit assumed

| Structure (SMILES) | MIC [1] [µg/mL] | MIC [2] [µg/mL] | MIC [3] [µg/mL] | MIC [4] [µg/mL] | MIC [5] [µg/mL] | MIC [6] [µg/mL] | MIC [7] [µg/mL] | MIC [8] [µg/mL] | MIC (EN[…] ATCC 8043) [µg/mL] | MIC (M[…] ATCC 4698) [µg/mL] | MIC (M[…] ATCC 9341) [µg/mL] | MIC (STR[…] 508) [µg/mL] | MIC [9] [µg/mL] | MIC [10] [µg/mL] | MIC [11] [µg/mL] | MIC [12] [µg/mL] | MIC (ESCHERICHIA COLI SS) [µg/mL] | MIC (ESCHERICHIA COLI DC-2) [µg/mL] | MIC (ESCHERICHIA COLI H560) [µg/mL] | MIC (ESCHERICHIA COLI KNK 437) [µg/mL] | also measured |
| --- | --- | --- | --- | --- | --- | --- | --- | --- | --- | --- | --- | --- | --- | --- | --- | --- | --- | --- | --- | --- | --- |
| CC[C@H]1OC(=O)[C@H](C)C(=O)[C@H](C)[C@@H](O[C@@H]2O[C@H](C)C[C@H](N(C)C)[C@H]2O)[C@](C)(OC)C[C@@H](C)C2=NC3CN(CCN(C)C)CC3N3C(=O)O[C@@]1(C)[C@H]3[C@H]2C (some centres unmarked) [Example 129] | 1.56 (≈ 2.08 µM) | 1.56 (≈ 2.08 µM) | > 100 | 1.56 (≈ 2.08 µM) | 1.56 (≈ 2.08 µM) | 1.56 (≈ 2.08 µM) | > 100 | 1.56 (≈ 2.08 µM) | 0.39 (≈ 0.52 µM) | 1.56 (≈ 2.08 µM) | 0.2 (≈ 0.267 µM) | 0.05 (≈ 0.0667 µM) | 0.05 (≈ 0.0667 µM) | 0.02 (≈ 0.0267 µM) | > 100 | 3.1 (≈ 4.13 µM) | 0.78 (≈ 1.04 µM) | 50 (≈ 66.7 µM) | 50 (≈ 66.7 µM) | > 100 | MIC (ESCHERICHIA COLI JUHL): 100 µg/mL (≈ 133 µM); MIC [13]: 100 µg/mL (≈ 133 µM); MIC [14]: 100 µg/mL (≈ 133 µM); MIC [15]: > 100 µg/mL; MIC [16]: > 100 µg/mL; MIC [17]: > 100 µg/mL; MIC [18]: > 100 µg/mL; MIC [19]: 1.56 µg/mL (≈ 2.08 µM); MIC (PSEUDOMONAS CEPACIA 296I): > 100 µg/mL; MIC [20]: > 100 µg/mL; MIC [21]: > 100 µg/mL; MIC (CANDIDA ALBICANS CCH 442): > 100 µg/mL; MIC [22]: 50 µg/mL (≈ 66.7 µM); MIC (H. Influenza Dill AMP R): 64 µg/mL (≈ 85.3 µM) |
| CC[C@H]1OC(=O)[C@H](C)C(=O)[C@H](C)[C@@H](O[C@@H]2O[C@H](C)C[C@H](N(C)C)[C@H]2O)[C@](C)(OC)C[C@@H](C)C2=N[C@@H]3COC[C@@H]3N3C(=O)O[C@@]1(C)[C@H]3[C@H]2C [Example 18] | 0.39 (≈ 0.574 µM) | 0.78 (≈ 1.15 µM) | > 100 | 0.78 (≈ 1.15 µM) | 0.78 (≈ 1.15 µM) | 0.78 (≈ 1.15 µM) | > 100 | 0.78 (≈ 1.15 µM) | 0.1 (≈ 0.147 µM) | 0.78 (≈ 1.15 µM) | 0.05 (≈ 0.0735 µM) | 0.05 (≈ 0.0735 µM) | 0.05 (≈ 0.0735 µM) | 0.05 (≈ 0.0735 µM) | > 100 | 0.39 (≈ 0.574 µM) | 0.78 (≈ 1.15 µM) | > 100 | > 100 | > 100 | MIC [13]: > 100 µg/mL; MIC [14]: > 100 µg/mL; MIC [15]: > 100 µg/mL; MIC [16]: > 100 µg/mL; MIC [17]: > 100 µg/mL; MIC [18]: > 100 µg/mL; MIC [19]: 6.2 µg/mL (≈ 9.12 µM); MIC (PSEUDOMONAS CEPACIA 296I): > 100 µg/mL; MIC [23]: > 100 µg/mL; MIC [20]: > 100 µg/mL; MIC [21]: > 100 µg/mL; MIC (CANDIDA ALBICANS CCH 442): > 100 µg/mL; MIC [22]: 3.1 µg/mL (≈ 4.56 µM); MIC (H. Influenza Dill AMP R): 8 µg/mL (≈ 11.8 µM) |
